Here are results for 68 compounds from PubChem BioAssay AID1361 (SRMLSC, 2008).

This assay is described as follows: blockers of mitochondrial fusion, WT vs mutant – cell-based, chemical genetic, wild-type and mutant, confirmation (AID 1361). The settings on record: Cell-based mitochondrial fusion phenotype, imaging.
Setting [1] is: mutant cells, measured here: mutant cell line IC50.

Activity calls are given as the source filed them. No rule for the calls is given here.

Take `Cc1ccc(C(=O)NCc2ccc(N3CCN(C(=O)OC(C)(C)C)CC3)cc2)cc1`: the IC50 (usually the concentration that gives 50% inhibition) was > 25 µM (inactive) (WT cells) and above 25 µM under setting [1].

On to `CCCCOP(=O)(OCCCC)C(Nc1ccccc1)c1ccc2c(c1)OCO2` (stereo unspecified), for which the IC50 is 20.3 µM (WT cells) and above 25 µM under setting [1].

As for `O=C(N=C1SCC(=O)N1c1ccccc1Cl)c1ccccc1`, the IC50 (WT cells) is > 25 µM (inactive) and the IC50 under setting [1] was above 25 µM.

For the compound `COc1cccc(-c2ccc(C#N)c(OC(=O)c3c(Cl)cccc3Cl)n2)c1`, the IC50 (WT cells) is > 25 µM (inactive) and the IC50 under setting [1] is above 25 µM.

`CN(C)c1ccc(S(=O)(=O)c2ccc(Cl)cc2)cc1`: the IC50 is > 25 µM (inactive) (WT cells) and above 25 µM under setting [1].

Consider `COc1cc(OC)c2c(c1)C(=O)c1cc(OC)cc(OC)c1C2=O`, for which the IC50 is > 25 µM (inactive) (WT cells) and above 25 µM under setting [1].

With `Cc1cccc(C(=O)NC(C(=O)Nc2nc(-c3ccccn3)cs2)C(C)C)c1` (stereo unspecified), the half-maximal inhibitory concentration (IC50) reads like this: (WT cells) 20.8 µM; under setting [1], above 25 µM.

`Fc1ccc(Nc2nc(N/N=C/c3ccco3)nc(N3CCCCC3)n2)cc1`: the concentration for half-maximal inhibition (IC50) (WT cells) is 19.3 µM and the IC50 under setting [1] is above 25 µM.

For the compound `COc1ccc(-c2nc(-c3ccccc3)[nH]c(=O)c2C#N)cc1`, the IC50 (WT cells) is > 25 µM (inactive) and the IC50 under setting [1] is above 25 µM.

For `O=C(COC(=O)C1(c2ccc(Cl)cc2)CCCC1)Nc1ncc(C(F)(F)F)cc1Cl`, the concentration for half-maximal inhibition (IC50) (WT cells) was 18.2 µM and the IC50 under setting [1] was above 25 µM.

For `COc1cccc(N2C(=O)C(c3ccccc3)=C(c3nc4ccccc4s3)C2NC(C)=O)c1` (stereo unspecified), the IC50 is > 25 µM (inactive) (WT cells) and above 25 µM under setting [1].

With `C=CCNC1=C(Cl)C(=O)N(c2cccc(Cl)c2Cl)C1=O`, the IC50 (WT cells) was > 25 µM (inactive) and the 50% inhibitory concentration (IC50) under setting [1] is above 25 µM.

Turning to `Cc1ccc(C)c(N2CCN(C(=O)Cc3cn(C)c4ccccc34)CC2)c1`, the IC50 is, setting by setting: (WT cells) 21.9 µM; under setting [1], above 25 µM.

As to `CC(C)Cc1ccc(C(C)C(=O)OCC(=O)c2c[nH]c3ccccc23)cc1` (stereo unspecified), the half-maximal inhibitory concentration (IC50) was 17.5 µM (WT cells) and above 25 µM under setting [1].

Take `CCOC(=O)/C(=C\c1ccc(OC(F)F)cc1)C1=Nn2c(nnc2-c2ccc(Cl)cc2)SC1`: the IC50 by setting is: (WT cells) 10.8 µM; under setting [1], above 25 µM.

In the case of `O=C(N/N=C/c1c[nH]c2ccccc12)c1[nH]c2ccc(Br)cc2c1-c1ccccc1`, the half-maximal inhibitory concentration (IC50) (WT cells) is 3.58 µM and the half-inhibitory concentration (IC50) under setting [1] came out at 14.9 µM.

For `Cc1nn(CCC(N)=S)c2nc(-c3cccs3)cc(C(F)(F)F)c12`, the IC50 reads like this: (WT cells) 18.9 µM; under setting [1], above 25 µM.

As for `CC1CC1C(=O)OCC(=O)NCc1ccc(Cl)cc1Cl` (stereo unspecified), the IC50 by setting is: (WT cells) > 25 µM (inactive); under setting [1], above 25 µM.

With `CC1CC2(CCCC2)N(C(=O)c2ccccc2)Cc2ccccc21` (stereo unspecified), the IC50 by setting is: (WT cells) 24.9 µM (inactive); under setting [1], above 25 µM.

For `Cc1ccc(N=Cc2c(O)n(-c3ccc4c(c3)OCO4)c(=O)c3ccccc23)cc1`, the IC50 is > 25 µM (inactive) (WT cells) and above 25 µM under setting [1].

Regarding `CCn1c(C(=O)N2CCc3ccccc3C2)cc2oc3ccccc3c21`, the half-inhibitory concentration (IC50) was 8.84 µM (WT cells) and above 25 µM under setting [1].

As to `O=C(NCC(c1cccnc1)N1CCOCC1)c1ccco1` (stereo unspecified), the IC50 is > 25 µM (inactive) (WT cells) and above 25 µM under setting [1].

Consider `CC(Oc1ccc2oc3ccccc3c2c1)C(=O)NC12CC3CC(CC(C3)C1)C2` (stereo unspecified), for which the IC50 reads like this: (WT cells) 9.61 µM; under setting [1], 15.7 µM.

Turning to `COc1ccc(C(=O)NN(C)c2nc(-c3ccccc3)nnc2C(F)(F)F)cc1`, the IC50 is, setting by setting: (WT cells) > 25 µM (inactive); under setting [1], above 25 µM.

As for `Cc1nc(-c2ccccc2)sc1-c1nc(-c2ccncc2)ncc1S(=O)(=O)c1ccccc1`, the half-inhibitory concentration (IC50) is, setting by setting: (WT cells) 10.5 µM; under setting [1], above 25 µM.

In the case of `COc1ccc(-c2nc3ccccc3s2)cc1O`, the IC50 was > 25 µM (inactive) (WT cells) and above 25 µM under setting [1].

`CC(Oc1ccc(Cl)cc1Cl)C(=O)NCCCCc1ccccc1` (stereo unspecified): the IC50 reads like this: (WT cells) > 25 µM (inactive); under setting [1], above 25 µM.

For the compound `CCC(C)c1ccccc1NC(=O)COC(=O)c1ccc2[nH]c3c(c2c1)CCCC3` (stereo unspecified), the 50% inhibitory concentration (IC50) (WT cells) is 9.98 µM and the half-maximal inhibitory concentration (IC50) under setting [1] was above 25 µM.

Consider `CC(C)(C)c1ccc(CSc2nnc(-c3ccccn3)n2Cc2ccco2)cc1`, for which the 50% inhibitory concentration (IC50) was 17.6 µM (WT cells) and above 25 µM under setting [1].

`Cc1[nH]c2ccc(F)cc2c1CCN(Cc1ccco1)C(=S)NC(C)(C)C`: the half-maximal inhibitory concentration (IC50) is, setting by setting: (WT cells) 12.5 µM; under setting [1], above 25 µM.

For the compound `CC(C)C(=O)Nc1nnc(SCC(=O)NCc2cccs2)s1`, the IC50 by setting is: (WT cells) > 25 µM (inactive); under setting [1], above 25 µM.

Consider `COC(=O)c1ccc(NCC(=O)c2ccccc2)cc1`, for which the IC50 runs as follows: (WT cells) > 25 µM (inactive); under setting [1], above 25 µM.

As to `COc1cccc(OC)c1OCCCCN1CCCC1`, the IC50 is, setting by setting: (WT cells) > 25 µM (inactive); under setting [1], above 25 µM.

On to `Cn1c(=O)n(C)c2cc([N+](=O)[O-])c(N3CCN(S(=O)(=O)c4ccc(C(C)(C)C)cc4)CC3)cc21`, for which the IC50 (WT cells) was 5.99 µM and the IC50 under setting [1] was above 25 µM.

Take `CC(=O)Nc1sc2c(c1C(c1ccc(Cl)cc1)N1CCOCC1)CCCC2` (stereo unspecified): the IC50 reads like this: (WT cells) 13 µM; under setting [1], above 25 µM.

With `CCOc1c(OC(C)=O)ccc(/C=C/c2ccc3cccc(OC(C)=O)c3n2)c1[N+](=O)[O-]`, the IC50 reads like this: (WT cells) > 25 µM (inactive); under setting [1], above 25 µM.

As for `CCCOc1ccc(-c2nc(C#N)c(N3CCC(C(N)=O)CC3)o2)cc1`, the IC50 is > 25 µM (inactive) (WT cells) and above 25 µM under setting [1].

With `O=C(CCN1C(=O)/C(=C/c2cccs2)SC1=S)NC1=NCCS1`, the IC50 reads like this: (WT cells) 12.5 µM; under setting [1], above 25 µM.

Regarding `CCSc1nnc(NC(=O)COc2ccc3ccccc3c2)s1`, the IC50 runs as follows: (WT cells) > 25 µM (inactive); under setting [1], above 25 µM.

Regarding `COc1ccc(-n2ncc3c(NCc4ccco4)ncnc32)cc1`, the IC50 by setting is: (WT cells) > 25 µM (inactive); under setting [1], above 25 µM.

Take `Cc1ccccc1Nc1scc(-c2ccc(Cl)cc2)[n+]1-c1ccccc1C`: the 50% inhibitory concentration (IC50) is, setting by setting: (WT cells) 8.24 µM; under setting [1], above 25 µM.

With `C=CCn1c(COc2ccccc2-c2ccccc2)nnc1SCC(=O)NC(=O)NCc1ccco1`, the IC50 (WT cells) was > 25 µM (inactive) and the IC50 under setting [1] is above 25 µM.

As to `Cc1ccc(NC(=O)c2cc(-c3ccccc3)nn2-c2ccccc2)c(Br)c1`, the IC50 is, setting by setting: (WT cells) 4.51 µM; under setting [1], above 25 µM.

As to `O=c1cc2c(nn1Cc1ccc(Cl)cc1Cl)-c1ccccc1CC2`, the IC50 by setting is: (WT cells) 10.6 µM; under setting [1], 17.8 µM.

In the case of `Cc1ccc(-c2csc3ncnc(N4CCc5ccccc5C4)c23)cc1`, the IC50 is 9.52 µM (WT cells) and above 25 µM under setting [1].

In the case of `CCOc1ccccc1-n1c(CN2CCN(C(=O)c3ccco3)CC2)nc2ccccc2c1=O`, the IC50 by setting is: (WT cells) > 25 µM (inactive); under setting [1], above 25 µM.

With `O=C(N/N=C/c1c(Cl)cccc1Cl)c1n[nH]c2c1CCCC2`, the IC50 runs as follows: (WT cells) > 25 µM (inactive); under setting [1], above 25 µM.

Turning to `CC12CCC(O)CC1=CCC1C2CCC2(C)C1CCC21CCC(=O)O1` (stereo unspecified), the IC50 is 15 µM (WT cells) and above 25 µM under setting [1].

For `CCOC(=O)c1c(N)sc(C(O)(C(F)(F)F)C(F)(F)F)c1-c1ccccc1`, the half-maximal inhibitory concentration (IC50) is, setting by setting: (WT cells) 20.3 µM; under setting [1], above 25 µM.

Take `CCCCCC(O)c1cccc(OCc2ccc3ccccc3n2)c1` (stereo unspecified): the IC50 was 14.9 µM (WT cells) and above 25 µM under setting [1].

In the case of `CCOC(=O)c1[nH]c2ccc(OC)cc2c1NC(=O)C(C)N1CCC2(CC1)OCCO2` (stereo unspecified), the IC50 was > 25 µM (inactive) (WT cells) and above 25 µM under setting [1].

Consider `COc1ccc(NC(=O)c2ccc(-c3ccccc3C(F)(F)F)o2)cc1`, for which the half-maximal inhibitory concentration (IC50) by setting is: (WT cells) 16.4 µM; under setting [1], 21.7 µM.

As for `Cc1cc(C)n(CC(O)Cn2c3ccc(Br)cc3c3cc(Br)ccc32)c(=O)n1` (stereo unspecified), the half-maximal inhibitory concentration (IC50) by setting is: (WT cells) 11 µM; under setting [1], above 25 µM.

Consider `CC(C)=CCc1c(O)c(CC=C(C)C)c2c(c1O)C(=O)CC(c1ccc(O)cc1)O2` (stereo unspecified), for which the IC50 runs as follows: (WT cells) 10.7 µM; under setting [1], above 25 µM.

Consider `CCOc1ccccc1N1CCN(C(=O)c2ccc3[nH]c4c(c3c2)CCCC4)CC1`, for which the IC50 is 17.1 µM (WT cells) and above 25 µM under setting [1].

With `O=C(CSCc1cccc(Cl)c1)Nc1ccccc1-c1ccccc1`, the concentration for half-maximal inhibition (IC50) by setting is: (WT cells) 12.1 µM; under setting [1], above 25 µM.

With `Cc1ccccc1N1CCN(c2ncnc3scc(-c4cccs4)c23)CC1`, the IC50 reads like this: (WT cells) 9.75 µM; under setting [1], above 12.5 µM.

For `CCN1CCc2nc(NC(=O)c3ccccc3)sc2C1`, the IC50 (WT cells) was > 25 µM (inactive) and the IC50 under setting [1] was above 12.5 µM.

On to `c1ccc(-c2csc3ncnc(N4CCc5ccccc5C4)c23)cc1`, for which the half-inhibitory concentration (IC50) (WT cells) was 9.44 µM and the 50% inhibitory concentration (IC50) under setting [1] is above 25 µM.

Take `COC(=O)C1=C(O)/C(=C\c2ccc(CNC(=O)C(=O)Nc3ccc(C)cc3)o2)N=C1C`: the IC50 was > 25 µM (inactive) (WT cells) and above 25 µM under setting [1].

With `CC1=CN2C(=N)/C(=C/c3ccc(Sc4ccc(C)cc4)o3)C(=O)N=C2S1`, the half-inhibitory concentration (IC50) was 7.68 µM (WT cells) and above 25 µM under setting [1].

On to `Cc1ccc(/C=C/C(=O)N2CCC(Cc3ccccc3)CC2)cc1`, for which the IC50 (WT cells) was 15.1 µM and the IC50 under setting [1] is above 25 µM.

For the compound `NC(=O)NCCC1=CCCCC1`, the IC50 runs as follows: (WT cells) > 25 µM (inactive); under setting [1], above 25 µM.

On to `CCOC(=O)c1c(C)[nH]c(C)c1C(=O)CSc1nnc(-c2ccncc2)n1C`, for which the IC50 (WT cells) is > 25 µM (inactive) and the half-inhibitory concentration (IC50) under setting [1] was above 25 µM.

As for `COc1ccc(N2CCN(CCNC(=O)c3nnc(Cc4c(F)cccc4Cl)o3)CC2)cc1`, the IC50 is, setting by setting: (WT cells) > 25 µM (inactive); under setting [1], above 25 µM.

For the compound `CCOC(=O)N1CCC(NC(=O)c2cc(-c3ccc(F)cc3)[nH]c2C)CC1`, the IC50 by setting is: (WT cells) > 25 µM (inactive); under setting [1], above 25 µM.

Turning to `COc1cccc(C2=CC(c3ccccc3)n3nnnc3N2)c1` (stereo unspecified), the IC50 was > 25 µM (inactive) (WT cells) and above 25 µM under setting [1].

For the compound `CCCOC(=O)c1ccc(Oc2cn[nH]c2-c2ccc(OC)cc2O)cc1`, the IC50 (WT cells) was 11.3 µM and the 50% inhibitory concentration (IC50) under setting [1] was 21.9 µM.
